From patent publication US20250215029A1 (Recludix Pharma, Inc., priority 2022, published 2025)

Legend:
[1] = target: T1, Recombinant STAT3 protein (STAT3 (G127-I722)) (Homo sapiens, UniProt P40763); experiment: STAT3 Fluorescence Polarization (FP) Assay; format: binding; conditions: STAT3 (G127-I722) 25 nM, probe 5-FAM-GpYLPQTV-NH2 2 nM, 45-minute incubation; read-out: STAT3 (FP assay IC50 class)
T1 construct: Recombinant STAT3 protein (STAT3 (G127-I722))
Method in brief: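 Displacement of a fluorescent phosphotyrosine peptide (5-FAM-GpYLPQTV-NH2, 2 nM) from 25 nM recombinant STAT3 G127-I722 was monitored by FP after 45 min at room temperature.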

[2] = target: T2, Recombinant STAT6 protein (STAT6 (W123-T658)) (Homo sapiens, UniProt P42226); experiment: STAT6 Fluorescence Polarization (FP) Assay; format: binding; conditions: STAT6 (W123-T658) 250 nM, probe 5-FAM-Ap[…]-NH2 2 nM, 45-minute incubation; read-out: STAT6 (FP assay IC50 class)
T2 construct: Recombinant STAT6 protein (STAT6 (W123-T658))
T2 sequence (P42226 123-658): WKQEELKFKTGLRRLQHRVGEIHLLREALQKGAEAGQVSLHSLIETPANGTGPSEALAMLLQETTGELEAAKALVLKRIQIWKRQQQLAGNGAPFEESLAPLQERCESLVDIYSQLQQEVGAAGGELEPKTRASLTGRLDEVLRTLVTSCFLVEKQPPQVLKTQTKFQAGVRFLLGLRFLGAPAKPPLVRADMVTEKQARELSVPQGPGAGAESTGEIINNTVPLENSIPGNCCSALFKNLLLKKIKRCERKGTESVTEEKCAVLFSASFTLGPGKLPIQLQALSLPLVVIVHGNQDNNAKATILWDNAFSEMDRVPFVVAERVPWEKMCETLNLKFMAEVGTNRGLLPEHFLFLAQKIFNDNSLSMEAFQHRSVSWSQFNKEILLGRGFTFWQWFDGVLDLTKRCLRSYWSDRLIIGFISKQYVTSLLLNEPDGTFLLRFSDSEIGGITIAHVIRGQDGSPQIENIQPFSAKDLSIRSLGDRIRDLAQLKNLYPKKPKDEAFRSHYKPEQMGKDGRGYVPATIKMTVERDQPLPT
Method in brief: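 Probe displacement format: serially diluted compounds incubated 45 min at room temperature with 2 nM fluorescent phosphopeptide and 250 nM STAT6 (W123-T658) in pH 7.4 HEPES buffer, 1% DMSO final. Polarization signal plotted against log concentration, IC50 fitted by nonlinear regression.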

T1 sequence (P40763 127-722): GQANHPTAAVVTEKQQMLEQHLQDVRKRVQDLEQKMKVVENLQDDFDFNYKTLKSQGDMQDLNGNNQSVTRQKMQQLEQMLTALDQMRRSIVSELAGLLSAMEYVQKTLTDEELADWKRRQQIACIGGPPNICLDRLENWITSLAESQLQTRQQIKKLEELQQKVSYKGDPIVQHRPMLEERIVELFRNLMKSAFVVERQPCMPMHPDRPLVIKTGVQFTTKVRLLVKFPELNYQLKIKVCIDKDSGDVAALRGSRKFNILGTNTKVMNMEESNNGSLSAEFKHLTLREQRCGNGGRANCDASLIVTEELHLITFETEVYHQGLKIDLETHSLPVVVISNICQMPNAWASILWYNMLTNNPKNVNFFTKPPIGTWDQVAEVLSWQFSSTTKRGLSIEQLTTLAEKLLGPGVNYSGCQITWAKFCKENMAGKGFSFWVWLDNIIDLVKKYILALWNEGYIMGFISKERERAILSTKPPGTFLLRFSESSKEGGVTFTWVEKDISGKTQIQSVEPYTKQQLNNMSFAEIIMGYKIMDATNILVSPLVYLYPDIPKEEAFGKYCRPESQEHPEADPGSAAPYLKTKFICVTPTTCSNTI

Structure (SMILES) | IC50 [1] | IC50 [2]
O=C(N[C@H]1CCC[C@H]2CC[C@@H](C(=O)N3CC(c4cnccc4N4C[C@@H]5C[C@H]4CO5)C3)N2C1=O)c1cc2cc(C(F)P(=O)(O)O)ccc2s1 (stereo partly drawn) [Compound 683, ((2-(((3S,6S,9aS)-3-(3-(4-((1S,4S)-2-oxa-5-azabicyclo[2.2.1]heptan-5-yl)pyridin-3-yl)azetidine-1-carbonyl)-5-oxooctahydro-1H-pyrrolo[1,2-a]azepin-6-yl)carbamoyl)benzo [b]thiophen-5-yl)fluoromethyl) phosphonic acid] | < 0.1 µM | 3 to 30 µM
CO[C@H]1CCN(c2ccncc2C2CN(C(=O)[C@@H]3CC[C@@H]4CCC[C@H](NC(=O)c5cc6cc(CP(=O)(O)O)ccc6s5)C(=O)N43)C2)C1 [Compound 686, ((2-(((3S,6S,9aS)-3-(3-(4-((S)-3-methoxypyrrolidin-1-yl)pyridin-3-yl)azetidine-1-carbonyl)-5-oxooctahydro-1H-pyrrolo[1,2-a]azepin-6-yl)carbamoyl)benzo [b]thiophen-5-yl)methyl) phosphonic acid] | < 0.1 µM | 3 to 30 µM
O=C(N[C@H]1CCC[C@H]2CC[C@@H](C(=O)N3CC(c4cnccc4N4CC[C@@H](F)C4)C3)N2C1=O)c1cc2cc(CP(=O)(O)O)ccc2s1 [Compound 687, ((2-(((3S,6S,9aS)-3-(3-(4-((R)-3-fluoropyrrolidin-1-yl)pyridin-3-yl)azetidine-1-carbonyl)-5-oxooctahydro-1H-pyrrolo[1,2-a]azepin-6-yl)carbamoyl)benzo [b]thiophen-5-yl)methyl) phosphonic acid] | < 0.1 µM | 3 to 30 µM
CO[C@@H]1CCN(c2ccncc2C2CN(C(=O)[C@@H]3CC[C@@H]4CCC[C@H](NC(=O)c5cc6cc(CP(=O)(O)O)ccc6s5)C(=O)N43)C2)C1 [Compound 688, ((2-(((3S,6S,9aS)-3-(3-(4-((R)-3-methoxypyrrolidin-1-yl)pyridin-3-yl)azetidine-1-carbonyl)-5-oxooctahydro-1H-pyrrolo[1,2-a]azepin-6-yl)carbamoyl)benzo [b]thiophen-5-yl)methyl) phosphonic acid] | < 0.1 µM | 3 to 30 µM
O=C(N[C@H]1CCC[C@H]2CC[C@@H](C(=O)N3CC(c4cnccc4N4CC(C(F)F)C4)C3)N2C1=O)c1cc2cc(CP(=O)(O)O)ccc2s1 [Compound 691, ((2-(((3S,6S,9aS)-3-(3-(4-(3-(difluoromethyl)azetidin-1-yl)pyridin-3-yl)azetidine-1-carbonyl)-5-oxooctahydro-1H-pyrrolo[1,2-a]azepin-6-yl)carbamoyl)benzo [b]thiophen-5-yl)methyl) phosphonic acid] | < 0.1 µM | 3 to 30 µM
O=C(N[C@H]1CCC[C@H]2CC[C@@H](C(=O)N3CC(c4cnccc4N4CC(C(F)(F)F)C4)C3)N2C1=O)c1cc2cc(CP(=O)(O)O)ccc2s1 [Compound 692, ((2-(((3S,6S,9aS)-5-oxo-3-(3-(4-(3-(trifluoromethyl)azetidin-1-yl)pyridin-3-yl)azetidine-1-carbonyl)octahydro-1H-pyrrolo[1,2-a]azepin-6-yl)carbamoyl)benzo [b]thiophen-5-yl)methyl) phosphonic acid] | < 0.1 µM | 3 to 30 µM
CN(C)c1cccnc1C1CN(C(=O)[C@@H]2CC[C@@H]3CCC[C@H](NC(=O)c4cc5cc(C(F)P(=O)(O)O)ccc5s4)C(=O)N32)C1 (stereo partly drawn) [Compound 693, ((2-(((3S,6S,9aS)-3-(3-(3-(dimethylamino)pyridin-2-yl)azetidine-1-carbonyl)-5-oxooctahydro-1H-pyrrolo[1,2-a]azepin-6-yl)carbamoyl)benzo [b]thiophen-5-yl)fluoromethyl) phosphonic acid] | 1 to 10 µM | 3 to 30 µM
O=C(N[C@H]1CCC[C@H]2CC[C@@H](C(=O)N3CC(c4cnccc4N4C[C@H]5C[C@@H]4CO5)C3)N2C1=O)c1cc2cc(C(F)P(=O)(O)O)ccc2s1 (stereo partly drawn) [Compound 694, ((2-(((3S,6S,9aS)-3-(3-(4-((1R,4R)-2-oxa-5-azabicyclo[2.2.1]heptan-5-yl)pyridin-3-yl)azetidine-1-carbonyl)-5-oxooctahydro-1H-pyrrolo[1,2-a]azepin-6-yl)carbamoyl)benzo [b]thiophen-5-yl)fluoromethyl) phosphonic acid] | < 0.1 µM | 0.3 to 3 µM
O=C(N[C@H]1CCC[C@H]2CC[C@@H](C(=O)N3CC(c4cnccc4OC4CCCC4)C3)N2C1=O)c1cc2cc(C(F)P(=O)(O)O)ccc2s1 (stereo partly drawn) [Compound 695, ((2-(((3S,6S,9aS)-3-(3-(4-(cyclopentyloxy)pyridin-3-yl)azetidine-1-carbonyl)-5-oxooctahydro-1H-pyrrolo[1,2-a]azepin-6-yl)carbamoyl)benzo [b]thiophen-5-yl)fluoromethyl) phosphonic acid] | < 0.1 µM | 3 to 30 µM
O=C(N[C@H]1CCC[C@H]2CC[C@@H](C(=O)N3CC(C4=CCOCC4)C3)N2C1=O)c1cc2cc(CP(=O)(O)O)ccc2s1 [Compound 697, ((2-(((3S,6S,9aS)-3-(3-(3,6-dihydro-2H-pyran-4-yl)azetidine-1-carbonyl)-5-oxooctahydro-1H-pyrrolo[1,2-a]azepin-6-yl)carbamoyl)benzo [b]thiophen-5-yl)methyl) phosphonic acid] | 1 to 10 µM | 3 to 30 µM
O=C(N[C@H]1CCC[C@H]2CC[C@@H](C(=O)N3CC(c4cnccc4Oc4ccccc4)C3)N2C1=O)c1cc2cc(C(F)P(=O)(O)O)ccc2s1 (stereo partly drawn) [Compound 699, (fluoro(2-(((3S,6S,9aS)-5-oxo-3-(3-(4-phenoxypyridin-3-yl)azetidine-1-carbonyl)octahydro-1H-pyrrolo[1,2-a]azepin-6-yl)carbamoyl)benzo [b]thiophen-5-yl)methyl) phosphonic acid] | < 0.1 µM | 3 to 30 µM
O=C(N[C@H]1CCC[C@H]2CC[C@@H](C(=O)N3CC(c4cnccc4N4CC5(COC5)C4)C3)N2C1=O)c1cc2cc(CP(=O)(O)O)ccc2s1 [Compound 704, ((2-(((3S,6S,9aS)-3-(3-(4-(2-oxa-6-azaspiro[3.3]heptan-6-yl)pyridin-3-yl)azetidine-1-carbonyl)-5-oxooctahydro-1H-pyrrolo[1,2-a]azepin-6-yl)carbamoyl)benzo [b]thiophen-5-yl)methyl) phosphonic acid] | < 0.1 µM | 3 to 30 µM
O=C(N[C@H]1CCC[C@H]2CC[C@@H](C(=O)N3CC(c4cnccc4OCc4ccncc4)C3)N2C1=O)c1cc2cc(C(F)P(=O)(O)O)ccc2s1 (stereo partly drawn) [Compound 705, (fluoro(2-(((3S,6S,9aS)-5-oxo-3-(3-(4-(pyridin-4-ylmethoxy)pyridin-3-yl)azetidine-1-carbonyl)octahydro-1H-pyrrolo[1,2-a]azepin-6-yl)carbamoyl)benzo [b]thiophen-5-yl)methyl) phosphonic acid] | < 0.1 µM | 3 to 30 µM
COc1ccncc1[C@@H]1CCN(C(=O)[C@@H]2CC[C@@H]3CCC[C@H](NC(=O)c4cc5cc(C(F)P(=O)(O)O)ccc5s4)C(=O)N32)C1 (stereo partly drawn) [Compound 706, (fluoro(2-(((3S,6S,9aS)-3-((S)-3-(4-methoxypyridin-3-yl)pyrrolidine-1-carbonyl)-5-oxooctahydro-1H-pyrrolo[1,2-a]azepin-6-yl)carbamoyl)benzo [b]thiophen-5-yl)methyl) phosphonic acid] | < 0.1 µM | 0.3 to 3 µM
COc1ccncc1[C@H]1CCN(C(=O)[C@@H]2CC[C@@H]3CCC[C@H](NC(=O)c4cc5cc(C(F)P(=O)(O)O)ccc5s4)C(=O)N32)C1 (stereo partly drawn) [Compound 707, (fluoro(2-(((3S,6S,9aS)-3-((R)-3-(4-methoxypyridin-3-yl)pyrrolidine-1-carbonyl)-5-oxooctahydro-1H-pyrrolo[1,2-a]azepin-6-yl)carbamoyl)benzo [b]thiophen-5-yl)methyl) phosphonic acid] | < 0.1 µM | 0.3 to 3 µM
COc1nn(C)cc1C1CN(C(=O)[C@@H]2CC[C@@H]3CCC[C@H](NC(=O)c4cc5cc(C(F)P(=O)(O)O)ccc5s4)C(=O)N32)C1 (stereo partly drawn) [Compound 714, (fluoro(2-(((3S,6S,9aS)-3-(3-(3-methoxy-1-methyl-1H-pyrazol-4-yl)azetidine-1-carbonyl)-5-oxooctahydro-1H-pyrrolo[1,2-a]azepin-6-yl)carbamoyl)benzo [b]thiophen-5-yl)methyl) phosphonic acid] | 0.1 to 1 µM | 3 to 30 µM
Cn1cc(C2CN(C(=O)[C@@H]3CC[C@@H]4CCC[C@H](NC(=O)c5cc6cc(C(F)P(=O)(O)O)ccc6s5)C(=O)N43)C2)c(F)n1 (stereo partly drawn) [Compound 715, (fluoro(2-(((3S,6S,9aS)-3-(3-(3-fluoro-1-methyl-1H-pyrazol-4-yl)azetidine-1-carbonyl)-5-oxooctahydro-1H-pyrrolo[1,2-a]azepin-6-yl)carbamoyl)benzo [b]thiophen-5-yl)methyl) phosphonic acid] | 0.1 to 1 µM | 3 to 30 µM
